Results: PubChem BioAssay (NCI)
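Protocol summary: plate cells (96-well), add compound at 5 concentrations, incubate 48 h, interpolate endpoints linearly. TGI marks complete inhibition of growth.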 Where a SMILES comes first, the peptide text is derived from it.

What was measured:
Assay in all cases: NCI anticancer screen, dose series, 48 h
[1] = system: CCRF-CEM leukemia
[2] = system: NCI-H522 lung
[3] = system: UACC-62 melanoma
[4] = system: MDA-N
[5] = system: MDA-MB-435
[6] = system: UACC-257 melanoma
[7] = system: SNB-75 CNS
[8] = system: OVCAR-5 ovarian
[9] = system: OVCAR-4 ovarian
[10] = system: RPMI-8226 leukemia
[11] = system: SF-295 CNS
[12] = system: HCT-116 colon
[13] = system: HOP-62 NSCLC
[14] = system: M14 melanoma
[15] = system: OVCAR-3 ovarian
[16] = system: SNB-19 CNS
[17] = system: K-562 leukemia
[18] = system: EKVX NSCLC
[19] = system: MALME-3M melanoma
[20] = system: SK-MEL-28 melanoma
[21] = system: TK-10 renal
[22] = system: A549 NSCLC
[23] = system: HS 578T breast
[24] = system: IGROV1 ovarian
[25] = system: SW-620 colon
[26] = system: HL-60(TB) leukemia
[27] = system: OVCAR-8 ovarian
[28] = system: SR leukemia
[29] = system: U251 CNS
[30] = system: 786-0 renal
[31] = system: BT-549 breast
[32] = system: HT29 colon
[33] = system: MDA-MB-231 breast
[34] = system: PC-3 prostate
[35] = system: ACHN renal
[36] = system: MOLT-4 leukemia
[37] = system: SK-MEL-2 melanoma
[38] = system: SF-268 CNS
[39] = system: KM12 colon
[40] = system: T-47D breast
[41] = system: NCI-H226 lung
[42] = system: SN12C renal
[43] = system: HCT-15 colon
[44] = system: MCF7 breast
[45] = system: UO-31 renal
[46] = system: CAKI-1 renal
[47] = system: DU-145 prostate
[48] = system: HOP-92 NSCLC
[49] = system: NCI/ADR-RES ovarian
[50] = system: SF-539 CNS
[51] = system: NCI-H23 lung
[52] = system: SK-MEL-5 melanoma
[53] = system: SK-OV-3 ovarian
[54] = system: NCI-H460 lung
[55] = system: RXF 393 renal
[56] = system: HCC-2998 colon
[57] = system: COLO 205 colon
[58] = system: LOX IMVI melanoma

Q: For `CCC(C)C(NC(=O)C(NC(=O)C(CC(N)=O)NC(=O)CN)C(C)O)C(=O)NC(C(=O)NC(C)C(=O)NC(C(=O)NC(CCC(=O)O)C(=O)NC(CC(C)C)C(=O)NC(CC(=O)O)C(=O)NC(C(=O)NC(Cc1ccc(O)cc1)C(=O)N1CCCC1C(=O)O)C(C)O)C(C)C)C(C)C` (centres undefined) (H-GNTIVAVELDTYP-OH; configuration not given here), which TGI [1] is on record?
A: > 50 µM

Q: What about the TGI [2] of the same compound?
A: > 50 µM

Q: What about the TGI [3] of the same compound?
A: > 50 µM

Q: And the TGI [4]?
A: > 50 µM

Q: What about the TGI [5] of the same compound?
A: > 50 µM

Q: And the TGI [6]?
A: > 50 µM

Q: And the TGI [7]?
A: > 50 µM

Q: And the TGI [8]?
A: > 50 µM

Q: And the TGI [9]?
A: > 50 µM

Q: And the TGI [10]?
A: > 50 µM

Q: And the TGI [11]?
A: > 50 µM

Q: What about the TGI [12] of the same compound?
A: > 50 µM

Q: What about the TGI [13] of the same compound?
A: > 50 µM

Q: And the TGI [14]?
A: > 50 µM

Q: What about the TGI [15] of the same compound?
A: > 50 µM

Q: What about the TGI [16] of the same compound?
A: > 50 µM

Q: And the TGI [17]?
A: > 50 µM

Q: What about the TGI [18] of the same compound?
A: > 50 µM

Q: And the TGI [19]?
A: > 50 µM

Q: What about the TGI [20] of the same compound?
A: > 50 µM

Q: What about the TGI [21] of the same compound?
A: > 50 µM

Q: What about the TGI [22] of the same compound?
A: > 50 µM

Q: And the TGI [23]?
A: > 50 µM

Q: What about the TGI [24] of the same compound?
A: > 50 µM

Q: What about the TGI [25] of the same compound?
A: > 50 µM

Q: And the TGI [26]?
A: > 50 µM

Q: What about the TGI [27] of the same compound?
A: > 50 µM

Q: And the TGI [28]?
A: > 50 µM

Q: What about the TGI [29] of the same compound?
A: > 50 µM

Q: What about the TGI [30] of the same compound?
A: > 50 µM

Q: And the TGI [31]?
A: > 50 µM

Q: And the TGI [32]?
A: > 50 µM

Q: What about the TGI [33] of the same compound?
A: > 50 µM

Q: And the TGI [34]?
A: > 50 µM

Q: What about the TGI [35] of the same compound?
A: > 50 µM

Q: And the TGI [36]?
A: > 50 µM

Q: What about the TGI [37] of the same compound?
A: > 50 µM

Q: And the TGI [38]?
A: > 50 µM

Q: And the TGI [39]?
A: > 50 µM

Q: What about the TGI [40] of the same compound?
A: > 50 µM

Q: What about the TGI [41] of the same compound?
A: > 50 µM

Q: What about the TGI [42] of the same compound?
A: > 50 µM

Q: What about the TGI [43] of the same compound?
A: > 50 µM

Q: And the TGI [44]?
A: > 50 µM

Q: And the TGI [45]?
A: > 50 µM

Q: What about the TGI [46] of the same compound?
A: > 50 µM

Q: What about the TGI [47] of the same compound?
A: > 50 µM

Q: What about the TGI [48] of the same compound?
A: > 50 µM

Q: What about the TGI [49] of the same compound?
A: > 50 µM

Q: What about the TGI [50] of the same compound?
A: > 50 µM

Q: What about the TGI [51] of the same compound?
A: > 50 µM

Q: And the TGI [52]?
A: > 50 µM

Q: And the TGI [53]?
A: > 50 µM

Q: What about the TGI [54] of the same compound?
A: > 50 µM

Q: What about the TGI [55] of the same compound?
A: > 50 µM

Q: What about the TGI [56] of the same compound?
A: > 50 µM

Q: And the TGI [57]?
A: > 50 µM

Q: And the TGI [58]?
A: > 50 µM

Q: `COC(=O)[C@@]12CN(C)[C@@H](C(C)(C)C)N1C(=O)OC2c1ccccc1` (some centres undefined) was tested. Which TGI [1] did it give?
A: > 100 µM

Q: And the TGI [2]?
A: > 100 µM

Q: And the TGI [3]?
A: > 100 µM

Q: And the TGI [4]?
A: > 100 µM

Q: What about the TGI [5] of the same compound?
A: > 100 µM

Q: And the TGI [6]?
A: > 100 µM

Q: What about the TGI [7] of the same compound?
A: > 100 µM

Q: What about the TGI [8] of the same compound?
A: > 100 µM

Q: What about the TGI [9] of the same compound?
A: > 100 µM

Q: And the TGI [10]?
A: > 100 µM

Q: And the TGI [11]?
A: > 100 µM

Q: What about the TGI [13] of the same compound?
A: > 100 µM

Q: What about the TGI [14] of the same compound?
A: > 100 µM

Q: And the TGI [15]?
A: > 100 µM

Q: And the TGI [16]?
A: > 100 µM

Q: What about the TGI [17] of the same compound?
A: > 100 µM

Q: What about the TGI [18] of the same compound?
A: > 100 µM

Q: What about the TGI [19] of the same compound?
A: > 100 µM

Q: What about the TGI [20] of the same compound?
A: > 100 µM

Q: And the TGI [21]?
A: > 100 µM

Q: What about the TGI [22] of the same compound?
A: > 100 µM

Q: What about the TGI [23] of the same compound?
A: > 100 µM

Q: What about the TGI [24] of the same compound?
A: > 100 µM

Q: And the TGI [25]?
A: > 100 µM

Q: What about the TGI [26] of the same compound?
A: > 100 µM

Q: And the TGI [27]?
A: > 100 µM

Q: What about the TGI [28] of the same compound?
A: > 100 µM

Q: What about the TGI [29] of the same compound?
A: > 100 µM

Q: What about the TGI [30] of the same compound?
A: > 100 µM

Q: What about the TGI [31] of the same compound?
A: > 100 µM

Q: And the TGI [32]?
A: > 100 µM

Q: What about the TGI [33] of the same compound?
A: > 100 µM

Q: What about the TGI [34] of the same compound?
A: > 100 µM

Q: What about the TGI [35] of the same compound?
A: > 100 µM

Q: And the TGI [36]?
A: > 100 µM

Q: And the TGI [38]?
A: > 100 µM

Q: What about the TGI [39] of the same compound?
A: > 100 µM

Q: And the TGI [40]?
A: > 100 µM

Q: And the TGI [41]?
A: > 100 µM

Q: And the TGI [42]?
A: > 100 µM

Q: And the TGI [43]?
A: > 100 µM

Q: And the TGI [44]?
A: > 100 µM

Q: What about the TGI [45] of the same compound?
A: > 100 µM

Q: What about the TGI [46] of the same compound?
A: > 100 µM

Q: What about the TGI [47] of the same compound?
A: > 100 µM

Q: What about the TGI [48] of the same compound?
A: > 100 µM

Q: And the TGI [49]?
A: > 100 µM

Q: And the TGI [50]?
A: > 100 µM

Q: What about the TGI [51] of the same compound?
A: > 100 µM

Q: What about the TGI [52] of the same compound?
A: > 100 µM

Q: What about the TGI [53] of the same compound?
A: > 100 µM

Q: What about the TGI [54] of the same compound?
A: > 100 µM

Q: What about the TGI [55] of the same compound?
A: > 100 µM

Q: And the TGI [56]?
A: > 100 µM

Q: And the TGI [57]?
A: > 100 µM

Q: And the TGI [58]?
A: > 100 µM
